Test results published in patent US20250092065A1, “2-(INDAZOL-5-YL)-6-(PIPERIDIN-4-YL)-1,7-NAPHTHYRIDINE DERIVATIVES AND RELATED COMPOUNDS AS MODULATORS FOR SPLICING NUCLEIC ACIDS AND FOR THE TREATMENT OF PROLIFERATIVE DISEASES” (REMIX THERAPEUTICS INC., priority 2022, published 2025).
Where a name gives a salt, the structure may show the parent alone.

Legend:
HTT = test: HiBiT protein abundance assay, HTT (K562 HiBiT knock-in); assay type: cell-based, human; conditions: HiBiT knock-in K562 cells, 24 hours, top dose 10 μM
Method in brief: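 Luminescence readout: Nano-Glo HiBiT lytic detection after 24 h compound exposure of K562 HiBiT knock-in cells, 10000 cells/well. Dosing 10-pt, 3-fold, top 10 μM final. % response vs untreated parental K562 and DMSO controls; 4PL fit, IC50 = concentration giving 50% protein abundance.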

Target C = test: HiBiT protein abundance assay, Target C (K562 HiBiT knock-in); assay type: cell-based, human; conditions: HiBiT knock-in K562 cells, 24 hours, top dose 10 μM
Method in brief: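 K562 HiBiT knock-in cells (10000/well) were treated 24 h at 37° C with a 10-point 3-fold dilution series (top 10 μM final, ≤0.25% DMSO). HiBiT luminescence was read after lytic LgBiT detection. Percent response used unmodified K562 and DMSO-treated knock-in controls, and IC50 came from a four-parameter fit at 50% of untreated.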

## C[C@@H]1CN(c2ccc3nc(-c4cc5cn(C)nc5c(F)c4O)nc(C(N)=O)c3c2)C[C@H](C)N1 [Compound 712, 6-[(3R,5S)-3,5-dimethylpiperazin-1-yl]-2-(7-fluoro-6-hydroxy-2-methylindazol-5-yl) quinazoline-4-carboxamide]
HTT
  IC50: 100 to 1000 nM
Target C
  IC50: 1000 to 10000 nM

## CC(=O)c1nc(-c2cc3cn(C)nc3c(F)c2O)nc2ccc(N3C[C@@H](C)N[C@@H](C)C3)cc12 [Compound 717, 1-{6-[(3R,5S)-3,5-dimethylpiperazin-1-yl]-2-(7-fluoro-6-hydroxy-2-methylindazol-5-yl)quinazolin-4-yl}ethanone]
HTT
  IC50: 100 to 1000 nM
Target C
  IC50: 100 to 1000 nM

## CNC(=O)c1nc(-c2cc3cn(C)nc3c(F)c2O)nc2ccc(N3CCC(N4CCC4)CC3)cc12 [Compound 722, 6-[4-(azetidin-1-yl)piperidin-1-yl]-2-(7-fluoro-6-hydroxy-2-methylindazol-5-yl)-N-methylquinazoline-4-carboxamide]
HTT
  IC50: < 100 nM
Target C
  IC50: 100 to 1000 nM

## Cc1cc(N2C[C@@H](C)N[C@@H](C)C2)cc2c(Cl)cc(-c3cc4cn(C)nc4c(F)c3O)nc12 [Compound 723, 5-{4-chloro-6-[(3R,5S)-3,5-dimethylpiperazin-1-yl]-8-methylquinolin-2-yl}-7-fluoro-2-methylindazol-6-ol]
HTT
  IC50: < 100 nM
Target C
  IC50: < 100 nM

## CNC(=O)c1nc(-c2cc3cn(C)nc3c(F)c2O)nc2ccc(N3CCNC4(CC4)C3)cc12 [Compound 728, 6-{4,7-diazaspiro[2.5]octan-7-yl}-2-(7-fluoro-6-hydroxy-2-methylindazol-5-yl)-N-methylquinazoline-4-carboxamide]
HTT
  IC50: 100 to 1000 nM
Target C
  IC50: 100 to 1000 nM

## CNC(=O)c1nc(-c2cc3cn(C)nc3c(F)c2O)nc2ccc(N3CC[C@@H](NC)C3)cc12 [Compound 729, 2-(7-fluoro-6-hydroxy-2-methylindazol-5-yl)-N-methyl-6-[(3R)-3-(methylamino)pyrrolidin-1-yl]quinazoline-4-carboxamide]
HTT
  IC50: < 100 nM
Target C
  IC50: < 100 nM

## C[C@@H]1CN(c2ccc3nc(-c4cc5cn(C)nc5c(F)c4O)nc(-c4nccs4)c3c2)C[C@H](C)N1 [Compound 732, 5-{6-[(3R,5S)-3,5-dimethylpiperazin-1-yl]-4-(1,3-thiazol-2-yl)quinazolin-2-yl}-7-fluoro-2-methylindazol-6-ol]
HTT
  IC50: 1000 to 10000 nM
Target C
  IC50: 1000 to 10000 nM

## C[C@@H]1CN(c2ccc3nc(-c4cc5cn(C)nc5c(F)c4O)nc(C(=O)NCCO)c3c2)C[C@H](C)N1 [Compound 737, 6-[(3R,5S)-3,5-dimethylpiperazin-1-yl]-2-(7-fluoro-6-hydroxy-2-methylindazol-5-yl)-N-(2-hydroxyethyl)quinazoline-4-carboxamide]
HTT
  IC50: 1000 to 10000 nM
Target C
  IC50: 1000 to 10000 nM

## CNC(=O)c1nc(-c2cc3cn(C)nc3cc2O)nc2ccc(N3CCC(N(C)C)CC3)cc12 [Compound 742, 6-[4-(dimethylamino)piperidin-1-yl]-2-(6-hydroxy-2-methylindazol-5-yl)-N-methylquinazoline-4-carboxamide]
HTT
  IC50: 1000 to 10000 nM
Target C
  IC50: > 10000 nM

## C[C@@H]1CN(c2ccc3nc(-c4cc5cn(C)nc5c(F)c4O)ncc3c2)C[C@H](C)N1 [Compound 743, 5-{6-[(3R,5S)-3,5-dimethylpiperazin-1-yl]quinazolin-2-yl}-7-fluoro-2-methylindazol-6-ol]
HTT
  IC50: 1000 to 10000 nM
Target C
  IC50: 1000 to 10000 nM

## C[C@H]1CN(c2ccc3nc(-c4cc5cn(C)nc5c(F)c4O)ncc3c2)C[C@H](C)N1 [Compound 744, 5-{6-[(3S,5S)-3,5-dimethylpiperazin-1-yl]quinazolin-2-yl}-7-fluoro-2-methylindazol-6-ol]
HTT
  IC50: < 100 nM
Target C
  IC50: < 100 nM

## C[C@@H]1CN(c2ccc3nc(-c4cc5cn(C)nc5c(F)c4O)ncc3c2)C[C@@H](C)N1 [Compound 745, 5-{6-[(3R,5R)-3,5-dimethylpiperazin-1-yl]quinazolin-2-yl}-7-fluoro-2-methylindazol-6-ol]
HTT
  IC50: 100 to 1000 nM
Target C
  IC50: 100 to 1000 nM

## CN[C@@H]1CCN(c2cc3c(Cl)cc(-c4cc5cn(C)nc5c(C)c4O)nc3cc2C)C1 [Compound 748, 5-{4-chloro-7-methyl-6-[(3R)-3-(methylamino)pyrrolidin-1-yl]quinolin-2-yl}-2,7-dimethylindazol-6-ol]
HTT
  IC50: > 10000 nM
Target C
  IC50: > 10000 nM

## CN[C@H]1CCN(c2cc3c(Cl)cc(-c4cc5cn(C)nc5c(C)c4O)nc3cc2C)C1 [Compound 749, 5-{4-chloro-7-methyl-6-[(3S)-3-(methylamino)pyrrolidin-1-yl]quinolin-2-yl}-2,7-dimethylindazol-6-ol]
HTT
  IC50: > 10000 nM
Target C
  IC50: > 10000 nM

## Cn1cc2cc(-c3ncc4cc(N5CCC(N6CCC6)CC5)ccc4n3)c(O)c(F)c2n1 [Compound 750, 5-{6-[4-(azetidin-1-yl)piperidin-1-yl]quinazolin-2-yl}-7-fluoro-2-methylindazol-6-ol]
HTT
  IC50: 100 to 1000 nM
Target C
  IC50: 100 to 1000 nM

## C[C@@H]1CN(c2ccc3nc(-c4cc5cn(C)nc5cc4O)ncc3c2)C[C@H](C)N1 [Compound 751, 5-{6-[(3R,5S)-3,5-dimethylpiperazin-1-yl]quinazolin-2-yl}-2-methylindazol-6-ol hydrochloride]
HTT
  IC50: > 10000 nM
Target C
  IC50: > 10000 nM

## C[C@H]1CN(c2ccc3nc(-c4cc5cn(C)nc5cc4O)ncc3c2)C[C@H](C)N1 [Compound 752, 5-{6-[(3S,5S)-3,5-dimethylpiperazin-1-yl]quinazolin-2-yl}-2-methylindazol-6-ol]
HTT
  IC50: 100 to 1000 nM
Target C
  IC50: 100 to 1000 nM

## C[C@@H]1CN(c2ccc3nc(-c4cc5cn(C)nc5cc4O)ncc3c2)C[C@@H](C)N1 [Compound 753, 5-{6-[(3R,5R)-3,5-dimethylpiperazin-1-yl]quinazolin-2-yl}-2-methylindazol-6-ol]
HTT
  IC50: 100 to 1000 nM
Target C
  IC50: 100 to 1000 nM

## CCN(CC)C1CCN(c2ccc3nc(-c4cc5cn(C)nc5c(F)c4O)ncc3c2)CC1 [Compound 756, 5-{6-[4-(diethylamino)piperidin-1-yl]quinazolin-2-yl}-7-fluoro-2-methylindazol-6-ol]
HTT
  IC50: 100 to 1000 nM
Target C
  IC50: 100 to 1000 nM
